{"source": "patent US20020111305A1", "about": "“Antiviral peptides” (priority 1998, published 2002)", "key": {"HIV-1 III-b": {"tested_on": "HIV-1 III-b", "experiment": "HIV-1 neutralization assay (syncytia-forming on MT-2 cells)", "assay_type": "cell-based, Human Immuno-deficiency Virus Type 1", "details": "day 21; 457 TCID50 HIV per ml; 2 hours at 37° C.; maximum 800 μg/ml", "experimental": "(§1) A neutralization assay was performed on HIV-1 III-b as substantially described by Groenink M. et al., J. Virol 69, 523-527 (1995). In short, this assay comes down to the virus-neutralizing capacity of the different peptides being tested with an inoculum of 457 TCID50HIV per ml per neutralization, which is incubated at 37° C. for two hours with a twofold dilution series of the peptide for testing (maximum 800 μg/ml final concentration). The incubations are performed in a 5 mM phosphate buffer. On day 7, 14 and 21 the neutralization is assessed on the basis of the detected cytopathic effect (syncytia-forming) on MT-2 cells."}, "[1]": {"tested_on": "Herpes Simplex Virus (HSV)", "experiment": "Antiviral activity against Herpes Simplex Virus (TCID50 on Vero-cells after pre-incubation with peptide)", "assay_type": "cell-based", "experimental": "In test phials 10 μl HSV (Department of Virology Academisch Ziekenhuis Leiden (Leiden University Hospital), lab strain 96-6700 P (TCID50 10^5-10^6), was supplemented with peptide and NaPB to 200 μl. For the positive control the peptide was replaced by a human neutrophil defensin pool (HNP1-3). The test phials were subsequently incubated at 37° C. for 3 hours. Tenfold dilutions were then made in Dulbecco's Modified Eagles Medium (DMEM) with 2% foetal calf serum (FSCi). Diverse peptides, synthesized in identical manner, were used as negative control in the experiments.\nVero-cells were isolated using detachment buffer (0.25% trypsin and 0.03% EDTA in PBS), washed and brought to a concentration of 2×10^5 cells per ml DMEM +2% FCSi. In 96 wells-plates (Nunclon) 100 μl cell suspension (2×10^4 cells) was added per well. Acyclovir (ACV) was added as control to several wells about two hours (t=−2 hours) before infection. 50 μl of a dilution was added to each well at the point in time t=0.\nAfter 3 days incubation in a CO2-stove of 37° C. the cytopathological effect (cpe) was scored by counting under the microscope and the TCID50 (tissue culture […] dose) was determined using the Reed & Muench method (Dulbecco & Ginsberg, “Virology”, JB Lippincott Co., Philadelphia, 2nd edition, 1988).\nThe effectiveness of peptide 10 in time was then determined. […]"}, "MT-2 cells": {"tested_on": "MT-2 cells", "experiment": "Cytotoxicity seen in the HIV-1 neutralization assay", "assay_type": "cell-based", "details": "800 μg/ml", "experimental": "as §1"}}, "note": "Where no end group is shown, it is not given here.", "data": [{"sequence": "DSHAKRHHGYKRKFHEKHHSHRGY [his 5, reference compound]", "values": [{"measurement": "neutralizing capacity: μg/ml necessary for neutralization", "setting": "HIV-1 III-b", "result": "no neutralization"}]}, {"sequence": "KRKFHEKHHSHRGY [dh-5, the C-terminal part of histatin 5, reference compound]", "values": [{"measurement": "neutralizing capacity: μg/ml necessary for neutralization", "setting": "HIV-1 III-b", "result": "no neutralisation"}]}, {"sequence": "KRLFKKLLFSLRKY [peptide 10]", "values": [{"measurement": "activity against HSV compared with HNP, dilution series (FIG. 3)", "setting": "[1]; in high concentrations", "result": "more effective than HNP"}, {"measurement": "effectiveness against HSV compared with acyclovir and HNP (FIG. 1)", "setting": "[1]; peptide at sufficiently high concentrations (50 μg/ml), 3 hours at 37° C.", "result": "at least as effective as acyclovir and HNP"}, {"measurement": "neutralizing capacity: μg/ml necessary for neutralization", "setting": "HIV-1 III-b", "result": 200, "unit": "µg/mL"}]}, {"sequence": "KRLFKELLFSLRKY [peptide 4]", "values": [{"measurement": "neutralizing capacity: μg/ml necessary for neutralization", "setting": "HIV-1 III-b", "result": 200, "unit": "µg/mL"}]}, {"sequence": "LLLFLLKKRKKRKY [peptide 11, LLLFLLKKRKKRKY]", "values": [{"measurement": "cytotoxicity at the highest concentration", "setting": "MT-2 cells", "result": "# peptide 11 was cytoxic at the highest concentration (800 μg/ml)."}]}]}
